Source: ChEMBL document CHEMBL3352297, “Structure based virtual screening of MDPI database: discovery of structurally diverse and novel DPP-IV inhibitors” (Bioorg Med Chem Lett, 2014)
Activity calls are given as the source filed them. The calls are words filed in the database; no cut-off is given here.

Assays:
Rattus norvegicus = test: Suppression of blood glucose level in Wistar rat at 30 mg/kg, po measured 30 to 120 mins post dextrose challenge by oral glucose tolerance test; type: functional, organism-based; parameters: dose 30 mg/kg
Dipeptidyl peptidase 4 = Dipeptidyl peptidase 4 (Homo sapiens, UniProt P27487); test: Inhibition of human DPP-4 using H-Gly-Pro-para-Nitroanilide as substrate incubated for 20 mins prior to substrate addition measured after 30 mins by spectrophotometry
Sequence of Dipeptidyl peptidase 4 (P27487 whole entry): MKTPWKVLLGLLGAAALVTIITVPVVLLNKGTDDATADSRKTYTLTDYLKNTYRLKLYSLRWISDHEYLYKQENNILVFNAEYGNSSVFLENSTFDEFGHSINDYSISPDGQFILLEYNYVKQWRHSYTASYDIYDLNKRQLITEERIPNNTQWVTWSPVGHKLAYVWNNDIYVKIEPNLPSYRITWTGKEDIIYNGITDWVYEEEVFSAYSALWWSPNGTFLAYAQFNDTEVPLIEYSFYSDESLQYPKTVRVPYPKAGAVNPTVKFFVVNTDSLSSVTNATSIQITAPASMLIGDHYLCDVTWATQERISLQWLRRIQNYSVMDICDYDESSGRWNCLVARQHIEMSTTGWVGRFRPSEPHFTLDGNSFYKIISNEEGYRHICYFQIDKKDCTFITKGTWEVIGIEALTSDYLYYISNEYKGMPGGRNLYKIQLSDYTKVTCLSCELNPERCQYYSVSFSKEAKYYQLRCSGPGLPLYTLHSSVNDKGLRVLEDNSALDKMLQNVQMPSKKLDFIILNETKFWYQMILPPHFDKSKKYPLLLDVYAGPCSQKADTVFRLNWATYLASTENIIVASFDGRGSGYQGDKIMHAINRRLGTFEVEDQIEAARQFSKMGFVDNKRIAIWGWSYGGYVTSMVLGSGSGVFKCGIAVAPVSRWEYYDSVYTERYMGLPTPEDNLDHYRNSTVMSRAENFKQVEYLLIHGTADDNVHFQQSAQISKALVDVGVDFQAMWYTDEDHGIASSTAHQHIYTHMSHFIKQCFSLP

Compound | IC50 (Dipeptidyl peptidase 4; read-out: IC50) [nM] | IC50 (Dipeptidyl peptidase 4) | Activity (Rattus norvegicus)
Cc1ccc(=N)n(Cc2cccc(F)c2)c1 | 34600 | – | –
2,2-diphenylethanaminium tetrachloroaurate | – | – | Active
CN(C)c1ccc(C(N)CC(=O)c2c(O)c3ccccc3n(C)c2=O)cc1 (stereo not drawn) | – | ND(Insoluble) | –
N=CC(C(=O)c1ccccc1)c1ccccc1 (stereo not drawn) | > 100000 | – | –

Second part, led by results:

IC50 (Dipeptidyl peptidase 4; read-out: IC50) [nM] | IC50 (Dipeptidyl peptidase 4) | Compound | Activity (Rattus norvegicus)
2950 | – | CCn1c(=O)c(C(C)(NN)Nc2ccc(C)cc2)c(O)c2ccccc21 (stereo not drawn) | Active
730 | – | Cn1c(=O)c(C(C)(NN)Nc2ccccc2)c(O)c2ccccc21 (stereo not drawn) | Active
